Assay results taken from patent US7683097B2, “Topoisomerase inhibitors” (Propharmacon Inc., priority 2004, dated 2010).

Experiments:
HL-60 = experiment: Cell proliferation assay, Leukemia HL-60; assay type: cell-based; conditions: Homo sapiens, read-out: GI50 or IC50, Leukemia HL-60
Experimental: (§1) The compounds listed in Table III were prepared using the procedures outlined in the above Examples.

HL60-MX1 (MDR) = experiment: Cell proliferation assay, Leukemia HL60-MX1 (MDR); assay type: cell-based; conditions: read-out: GI50 or IC50, Leukemia HL60-MX1 (MDR)
Experimental: as §1

NCI-H460 [1] = experiment: Cell proliferation assay, NSC Lung Cancer NCI-H460; assay type: cell-based; conditions: Homo sapiens, read-out: GI50 or IC50, NSC Lung Cancer NCI-H460
Experimental: as §1

H69-AR (MDR) = experiment: Cell proliferation assay, SC Lung Cancer H69-AR (MDR); assay type: cell-based; conditions: Homo sapiens, H69AR; read-out: GI50 or IC50, SC Lung Cancer H69-AR (MDR)
Experimental: as §1

HCT-15 = experiment: Cell proliferation assay, Colon Cancer HCT-15; assay type: cell-based; conditions: Homo sapiens, read-out: GI50 or IC50, Colon Cancer HCT-15
Experimental: as §1

SF-268 = experiment: Cell proliferation assay, CNS Cancer SF-268; assay type: cell-based; conditions: Homo sapiens, read-out: GI50 or IC50, CNS Cancer SF-268
Experimental: as §1

SK-MEL-2 = experiment: Cell proliferation assay, Melanoma SK-MEL-2; assay type: cell-based; conditions: Homo sapiens, read-out: GI50 or IC50, Melanoma SK-MEL-2
Experimental: (§2) The compounds listed in Table IV were prepared using the procedures outlined in the above Examples.

OVCAR-3 = experiment: Cell proliferation assay, Ovarian Cancer OVCAR-3; assay type: cell-based; conditions: Homo sapiens, read-out: GI50 or IC50, Ovarian Cancer OVCAR-3
Experimental: as §2

MES-SA/Dx5 = experiment: Cell proliferation assay, Uterine MES-SA/Dx5; assay type: cell-based; conditions: Homo sapiens, read-out: GI50 or IC50, Uterine MES-SA/Dx5
Experimental: as §2

UO-31 = experiment: Cell proliferation assay, Renal Cancer UO-31; assay type: cell-based; conditions: Homo sapiens, read-out: GI50 or IC50, Renal Cancer UO-31
Experimental: as §2

PC-3 = experiment: Cell proliferation assay, Prostate Cancer PC-3; assay type: cell-based; conditions: Homo sapiens, read-out: GI50 or IC50, Prostate Cancer PC-3
Experimental: as §2

MCF-7 = experiment: Cell proliferation assay (panel), Breast Cancer MCF-7; assay type: cell-based; conditions: Homo sapiens, MCF7; read-out: GI50 or IC50, Breast Cancer MCF-7
Experimental: as §2

NCI-ADR = experiment: Cell proliferation assay, Breast Cancer NCI-ADR; assay type: cell-based; conditions: Homo sapiens, NCI/ADR-RES; read-out: GI50 or IC50, Breast Cancer NCI-ADR
Experimental: as §2

calf thymus DNA = experiment: DNA-intercalator displacement assay (EtBr displacement); assay type: binding; conditions: FIG. 4
Description: The curve labeled “Hoechst” corresponds to Hoechst 33258. Controls are: 1) no EtBr (min. fluorescence) and 2) no compound (max. fluorescence).
Gel retardation assays were done on 320 and other biaryl/terphenyl acid compounds, to test for electrophoretic mobility shifts due to the presence of a substance that directly binds DNA.

[2] = target: TopoIIα-DNA covalent complex (Homo sapiens, UniProt P11388); experiment: Topo IIα DNA covalent complex stabilization assay; assay type: biochemical; conditions: SDS trapping, proteinase K, FIG. 5
Description: To determine if the compound 320 stabilizes the TopoIIα-DNA covalent complex, cleavage intermediates are trapped by the addition of SDS to the reaction (Wilson Byl, J. A., et al., Biochemistry, 40, 712-718, 2001). After proteinase K digestion to digest any covalently bound Topo, the products are electrophoresed and stained with EtBr. The appearance of an additional band that is a linear form of the 2.5 Kb minicircle product is indicative of a compound's ability to stabilize the covalent complex.

NCI-H460 [3] = experiment: NCI-H460 human xenograft study in nude mice; conditions: i.v., 320 25 mg/Kg days 1-5, etoposide 35 mg/Kg days 7, 10, 14
Experimental: An acute toxicological study was performed for 320 prior to the xenograft study. Two groups (n=3) of female CD-1 mice were injected intraperitoneally (i.p.) with either 10 or 100 mg/Kg of 320 dissolved in 5% DMSO, 10% PEG400. […] A second MTD study was done by the intravascular (i.v.) route using 4 groups of CD-1 mice for the following: vehicle, 3, 10 and 30 mg/Kg injections which were to be given daily for days 1-5 and study duration of two weeks, at which point survivors would be euthanised.
All injections were by the i.v. route; groups were 5 NCR nu/nu mice. The cell line NCI-H460 was used to produce the tumors that appeared by day 7. […] All survivors to day 28 were euthanised at this time and tumor volumes measured.

Sequence of TopoIIα-DNA covalent complex (P11388 whole entry, one chain of several): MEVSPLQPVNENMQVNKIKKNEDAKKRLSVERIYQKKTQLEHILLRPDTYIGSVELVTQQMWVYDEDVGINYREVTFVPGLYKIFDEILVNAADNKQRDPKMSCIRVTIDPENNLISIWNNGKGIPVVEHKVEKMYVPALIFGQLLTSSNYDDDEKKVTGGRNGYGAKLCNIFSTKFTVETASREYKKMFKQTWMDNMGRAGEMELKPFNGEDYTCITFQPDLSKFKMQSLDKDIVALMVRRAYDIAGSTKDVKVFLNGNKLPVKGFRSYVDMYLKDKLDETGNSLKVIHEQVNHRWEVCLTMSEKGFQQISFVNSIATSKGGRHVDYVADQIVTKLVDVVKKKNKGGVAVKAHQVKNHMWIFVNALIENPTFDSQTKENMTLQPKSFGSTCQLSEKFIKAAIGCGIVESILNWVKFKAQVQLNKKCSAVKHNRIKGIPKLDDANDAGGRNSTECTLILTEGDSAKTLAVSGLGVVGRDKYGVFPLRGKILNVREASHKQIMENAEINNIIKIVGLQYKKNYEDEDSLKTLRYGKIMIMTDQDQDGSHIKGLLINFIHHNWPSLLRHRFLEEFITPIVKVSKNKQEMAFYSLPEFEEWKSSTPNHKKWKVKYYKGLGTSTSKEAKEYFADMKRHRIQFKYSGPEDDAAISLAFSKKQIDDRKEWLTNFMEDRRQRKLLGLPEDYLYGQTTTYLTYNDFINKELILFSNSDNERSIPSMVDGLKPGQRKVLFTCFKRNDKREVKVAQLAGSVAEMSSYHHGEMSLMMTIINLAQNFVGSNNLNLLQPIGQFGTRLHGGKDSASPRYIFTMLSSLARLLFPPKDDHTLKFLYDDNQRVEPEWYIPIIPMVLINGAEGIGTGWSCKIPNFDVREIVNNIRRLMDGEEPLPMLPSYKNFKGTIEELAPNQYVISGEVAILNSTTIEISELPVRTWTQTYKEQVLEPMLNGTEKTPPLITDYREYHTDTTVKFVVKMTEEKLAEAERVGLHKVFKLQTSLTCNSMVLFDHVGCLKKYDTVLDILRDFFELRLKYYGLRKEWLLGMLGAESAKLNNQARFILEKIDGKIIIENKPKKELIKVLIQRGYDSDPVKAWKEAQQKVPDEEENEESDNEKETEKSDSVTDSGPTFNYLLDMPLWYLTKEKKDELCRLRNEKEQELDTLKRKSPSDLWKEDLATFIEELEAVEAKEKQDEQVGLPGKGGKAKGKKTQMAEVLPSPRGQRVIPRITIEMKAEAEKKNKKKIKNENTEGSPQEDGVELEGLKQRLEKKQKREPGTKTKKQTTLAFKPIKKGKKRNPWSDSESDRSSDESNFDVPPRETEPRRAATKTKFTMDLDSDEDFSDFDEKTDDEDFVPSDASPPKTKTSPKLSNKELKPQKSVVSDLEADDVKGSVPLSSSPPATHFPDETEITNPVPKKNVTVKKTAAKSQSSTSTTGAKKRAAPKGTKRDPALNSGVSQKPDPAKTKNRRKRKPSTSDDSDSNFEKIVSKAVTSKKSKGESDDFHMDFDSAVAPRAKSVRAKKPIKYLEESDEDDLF

| IC50 (HL-60) | IC50 (HL60-MX1 (MDR)) | IC50 (NCI-H460 [1]) | IC50 (H69-AR (MDR)) | IC50 (HCT-15) | IC50 (SF-268) | IC50 (SK-MEL-2) | IC50 (OVCAR-3) | IC50 (UO-31) | IC50 (PC-3) | IC50 (MCF-7) | IC50 (NCI-ADR) | SMILES | IC50 (MES-SA/Dx5) | displacement of EtBr (intercalator) from DNA (calf thymus DNA) | stabilization of the TopoIIα-DNA covalent complex (linear form of minicircle) [2] | initial tumor growth delay (NCI-H460 [3]) | anti-tumor activity with respect to final tumor volume (NCI-H460 [3]; doxorubicin 5 mg/Kg days 7 and 14, day 28) |
| --- | --- | --- | --- | --- | --- | --- | --- | --- | --- | --- | --- | --- | --- | --- | --- | --- | --- |
| 1000 to 25000 nM | 1000 to 25000 nM | 1000 to 25000 nM | 1000 to 25000 nM | 1000 to 25000 nM | 1000 to 25000 nM | 1000 to 25000 nM | 1000 to 25000 nM | 1000 to 25000 nM | 1000 to 25000 nM | 1000 to 25000 nM | 1000 to 25000 nM | CN(C)CCN(C(=O)c1ccc(Cl)c(-c2ccc(-c3ccccc3)cc2)c1)c1cccnc1 [Compound 52, 6-Chloro-[1,1′;4′,1″]terphenyl-3-carboxylic acid (2-dimethylamino-ethyl)-pyridin-3-yl-amide] | ≤ 1000 nM | – | – | – | – |
| ≤ 1000 nM | 1000 to 25000 nM | ≤ 1000 nM | ≤ 1000 nM | ≤ 1000 nM | ≤ 1000 nM | 1000 to 25000 nM | ≤ 1000 nM | 1000 to 25000 nM | ≤ 1000 nM | > 25000 nM | ≤ 1000 nM | COc1ccc(NC(=O)c2ccc(Cl)c(-c3ccc(-c4ccccc4)cc3)c2)cn1 [Compound 8, 6-Chloro-[1,1′;4′,1″]terphenyl-3-carboxylic acid (6-methoxy-pyridin-3-yl)-amide] | ≤ 1000 nM | – | – | – | – |
| 1000 to 25000 nM | ≤ 1000 nM | 1000 to 25000 nM | ≤ 1000 nM | 1000 to 25000 nM | 1000 to 25000 nM | 1000 to 25000 nM | 1000 to 25000 nM | 1000 to 25000 nM | 1000 to 25000 nM | 1000 to 25000 nM | ≤ 1000 nM | O=C(NC1CCNCC1)c1ccc(Cl)c(-c2ccc(-c3ccccc3)cc2)c1 [Compound 43, 6-Chloro-[1,1′;4′,1″]terphenyl-3-carboxylic acid piperidin-4-ylamide] | ≤ 1000 nM | – | – | – | – |
| – | – | – | – | – | – | – | – | – | – | – | – | O=C(O)C1c2ccccc2CCN1C(=O)c1ccc(Cl)c(-c2ccc(-c3ccccc3)cc2)c1 (stereo not shown) [Compound 337, 2-(6″-Chloro-[1,1′;4′,1″]terphenyl-3″-carbonyl)-1,2,3,4-tetrahydro-isoquinoline-1-carboxylic acid] | – | lack of intercalator displacement | – | – | – |
| – | – | – | – | – | – | – | – | – | – | – | – | COc1cc([C@@H]2c3cc4c(cc3[C@@H](O[C@@H]3O[C@@H]5CO[C@@H](C)O[C@H]5[C@H](O)[C@H]3O)[C@H]3COC(=O)[C@H]23)OCO4)cc(OC)c1O [etoposide] | – | – | the linear form is present | greatest initial growth delay | greatest anti-tumor activity |
